Experimental data as given in US20250332279A1, “PHARMACEUTICAL COMPOSITION AND METHOD FOR TREATING GLIOBLASTOMAS” (National Cheng Kung University, priority 2024, published 2025).

Tested on: U87MG intracranial brain tumors
Experiment: In vivo antitumor efficiency of gene silencing-enhanced radiotherapy
Set-up: species or system mice
Protocol: For the animal experiments, luciferase expression plasmid-transfected U87MG cell-implanted pathogen-free male NU/NU mice (5-7 weeks old, 20-25 g, from BioLASCO, Taiwan) were employed in this study. U87MG cells were cultured at 37° C. with 5% CO2 in M EM with 10% fetal bovine serum and 1% penicillin/streptomycin (Invitrogen). Mice were anaesthetized with 2% isoflurane gas and immobilized on a stereotactic frame to implant U87MG cells. A sagittal incision in the skin overlying the calvarium was created. U87MG cell implantation was performed by creating a hole in the exposed cranium 1.5 mm anterior and 2 mm lateral to the bregma using a 27G needle. A total volume of 5 μL of U87MG cell suspension (1×10^5 cell/μL) was injected at a depth of 3 mm from the brain surface over a 5 min period. The needle was withdrawn over 2 min. MRI was performed to monitor brain tumor growth for 7 days after tumor cell implantation.
The details of the CE D procedure are as described in our previous study. Briefly, infusion cannulas were fabricated with silica tubing (Polymicro Technologies, Phoenix, AZ, USA) fused to a 0.1 mL syringe (Plastic One, Roanoke, VA, USA) with a 0.5 mm stepped-tip needle that protruded from the silica guide base. The treatment agents (VLPs or drugs) were loaded into the syringes and attached to a microinfusion pump (Bioanalytical Systems, Lafayette, IN, USA). The syringe with a silica cannula was mounted onto a stereotactic holder and then lowered through a puncture hole made in the skull to the implanted tumor. The sample solution was infused at a rate of 1 μL/min until a volume of 5 μL had been delivered, and the cannula was removed 2 min later.
All animal experiments were approved by the Animal Committee of Chang Gung University and adhered to the experimental animal care guidelines (IACUC NO. CGU106-036). Mice were raised in a room with a thermostat at 26° C. Nu/Nu mice weighing approximately 25-30 g (5-6 weeks old) were tested to confirm the efficacy of the proposed approach. Intracranial brain tumors were induced by transplantation of U87MG cells into mouse brains. Briefly, cultured U87MG cells (5×10^5 cells/mouse) were injected over a 2 min period into the brain using a syringe, and needle withdrawal was conducted over another period of 0.5 min. A total of 50 mice were used, and the experiments were divided into five groups. In Group 1 (n=10), the mice received no further treatment after transplantation of U87MG cells, and these mice served as the control. In Group 2 (n=10), the mice received TrQβ VLPs (5 μM) via CED infusion two times (every 7 days) after 7 days of U87MG cell transplantation. […] The intracranial tumor volume in mice was measured by MR imaging. The survival time was calculated from the day of U87MG cell inoculation (0 day) to the day of death. […]

[1] = CED infusion followed by 2Gy X-ray irradiation

## N.N.O=C([O-])C1(C(=O)[O-])CCC1.[Pt+2] [carboplatin]
[1]
  median survival: 51 days
  mice survived over 54 days: 10%
Day 34, CED infusion followed by 2Gy X-ray irradiation
  tumor volume by MRI: 18.9±17.8 mm3
Day 41, CED infusion followed by 2Gy X-ray irradiation
  tumor volume by MRI: 55.2±36.5 mm3
